# According to patent US9884043B2, “RORgammaT inhibitors” (Merck Sharp & Dohme Corp., priority 2011, dated 2018):
# Target: T1, HIS-tagged RORγ-LBD (Homo sapiens, UniProt P51449)
# T1 construct: HIS-tagged RORγ-LBD was recombinantly expressed in SF9 cells using a baculovirus expression system; made in house; host or cells: SF9 cells, baculovirus; crude lysate used
# T1 sequence (P51449 269-508 limits assumed): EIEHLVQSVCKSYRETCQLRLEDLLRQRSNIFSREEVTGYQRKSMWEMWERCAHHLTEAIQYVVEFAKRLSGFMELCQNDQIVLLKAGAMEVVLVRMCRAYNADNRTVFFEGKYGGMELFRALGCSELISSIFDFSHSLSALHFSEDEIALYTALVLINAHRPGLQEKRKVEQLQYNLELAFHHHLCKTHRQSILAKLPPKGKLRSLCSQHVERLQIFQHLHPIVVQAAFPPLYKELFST
# Assay: TR-FRET assay (Protocol C), purified RORγ-LBD / biotinylated SRC1 LXXLL peptide
# Type: biochemical
# Details: purified RORγ-LBD 3 nM, SRC1 peptide 100 nM, overnight at 4° C.
# Source text: Activation of RORgammaT activity can be measured using e.g. biochemical TR-FRET assay. In such an assay, interaction of cofactor-derived peptides with human RORgammaT-Ligand Binding Domain (LBD) can be measured. The TR-FRET technique is a sensitive biochemical proximity assay that will give information concerning the interaction of a ligand with the LBD, in the presence of cofactor derived peptides (Zhou et al., Methods 25:54-61, 2001).
# To identify novel antagonists of RORgammaT, an assay was developed which employs the interaction of RORgammaT with its co-activator peptide SRC1_2. This peptide mimics the recruitment of co-activators to RORgammaT through its interaction with the LXXLL (SEQ ID NO:2) (eg NR box) motifs (Xie et al., J. Immunol. 175: 3800-09, 2005; Kurebayashi et al., Biochem. Biophys. Res. Commun. 315: 919-27, 2004; Jin et al., Mol. Endocrinology 24:923-29, 2010). The assay was run following three slightly different protocols, i.e. Protocol A, Protocol B, and Protocol C, which are described below.
# TR-Fret Assay (Protocol C)
# HIS-tagged RORγ-LBD protein was expressed in SF9 cells using a baculovirus expression system. The RORγ-LBD protein was purified by glutathione sepharose chromatography. Separately, SF9 cells not expressing any recombinant protein were lysed and the lysate was added to the purified RORγ-LBD at 0.25 μl lysate (from 10,000 SF9 cells)/nM purified protein. The mixture was then diluted in assay buffer (50 mM Tris pH 7.0, 50 mM KCl, 1 mM EDTA, 0.1 mM DTT) to obtain RORγ-LBD final concentration of 3 nM in 384-well assay plate.
# Compounds to be tested were injected to the assay plate using Acoustic Droplet Ejection technology by Echo 550 liquid handler (Labcyte, Calif.). A stock of biotinylated-LXXLL (SEQ ID NO:2) peptide from coactivator SRC1 (Biotin-[…]) (SEQ ID NO: 1) was prepared in assay buffer and added to each well (100 nM final concentration). A solution of Europium tagged anti-HIS antibody (1.25 nM final concentration) and APC conjugated streptavidin (8 nM final concentration) were also added to each well.
# The final assay mixture was incubated for overnight at 4° C., and the fluorescence signal was measured on an Envision plate reader: (Excitation filter=340 nm; APC emission=665 nm; Europium emission=615 nm; dichroic mirror=D400/D630; delay time=100 μs, integration time=200 μs). IC50 values for test compounds were calculated from the quotient of the fluorescence signal at 665 nm divided by the fluorescence signal at 615 nm.
row,IC50 [nM],Compound
1,< 50,"O=C(O)c1cc(F)c(-c2nn(C(=O)c3c(Cl)cccc3C(F)(F)F)c3cccc(F)c23)cc1O [Example 26F, 4-(1-(2-chloro-6-(trifluoromethyl)benzoyl)-4-fluoro-1H-indazol-3-yl)-5-fluoro-2-hydroxybenzoic acid]"
2,< 50,"O=C(O)c1c(F)cc(-c2nn(C(=O)c3c(Cl)cccc3C(F)(F)F)c3cccc(F)c23)c(F)c1O [Example 26G, 4-(1-(2-chloro-6-(trifluoromethyl)benzoyl)-4-fluoro-1H-indazol-3-yl)-3,6-difluoro-2-hydroxybenzoic acid]"

# The remaining lines, values behind:
row,Compound,IC50 [nM]
1,"O=C(O)c1ccc(-c2nn(C(=O)c3c(Cl)cccc3C(F)(F)F)c3cc(C(=O)N4CC(F)C4)ccc23)cc1 [Example 25T, 4-(1-(2-chloro-6-(trifluoromethyl)benzoyl)-6-(3-fluoroazetidine-1-carbonyl)-1H-indazol-3-yl)benzoic acid]",< 50
2,"O=C(O)c1ccc(-c2nn(C(=O)c3c(Cl)cccc3C(F)(F)F)c3cc(C(=O)N4CC(F)(F)C4)ccc23)cc1 [Example 25U, 4-(1-(2-chloro-6-(trifluoromethyl)benzoyl)-6-(3,3-difluoroazetidine-1-carbonyl)-1H-indazol-3-yl)benzoic acid]",< 50
3,"O=C(O)c1ccc(-c2nn(C(=O)c3c(Cl)cccc3C(F)(F)F)c3cc(C(=O)N4CCCC4)ccc23)cc1 [Example 25V, 4-(1-(2-chloro-6-(trifluoromethyl)benzoyl)-6-(pyrrolidine-1-carbonyl)-1H-indazol-3-yl)benzoic acid]",< 50
4,"O=C(O)c1ccc(-c2nn(C(=O)c3c(Cl)cccc3C(F)(F)F)c3cc(C(=O)N4CCC4)ccc23)cc1 [Example 25W, 4-(6-(azetidine-1-carbonyl)-1-(2-chloro-6-(trifluoromethyl)benzoyl)-1H-indazol-3-yl)benzoic acid]",< 50
